Results taken from patent US8895502B2, “β2-glycoprotein I peptide inhibitors” (Kansas State University Research Foundation, priority 2010, dated 2014).
Ends that are not written are not given here.

Tested on: LTB4
Experiment: Intestinal IR, ex vivo LTB4 generation
Format: in vivo, mouse
Conditions: 40 μM peptide at 5 min prior to ischemia and 15-, 30- or 60-min post-ischemia

**Q.** Which “IR-induced LTB4, time course of administration” value does the source give for “H-IHFYSKNKEKKSSYTVEAHSRDGTI-OH [peptide 296Cys-Ser]” here?
**A.** significantly inhibited
